Measured values from ChEMBL document CHEMBL1149337, “Design and synthesis of potent and selective 1,3,4-trisubstituted-2-oxopiperazine based melanocortin-4 receptor agonists” (Bioorg Med Chem Lett, 2006).

How the values were obtained:
[1] = biological target: T1, Melanocyte-stimulating hormone receptor (Homo sapiens, UniProt Q01726); experiment: Agonist activity at human MC1R; assay type: functional
Melanocortin receptor 4 [2] = biological target: T2, Melanocortin receptor 4 (Homo sapiens, UniProt P32245); experiment: Binding affinity to human MC4R
[3] = biological target: T1, Melanocyte-stimulating hormone receptor; experiment: Binding affinity to human MC1R
Melanocortin receptor 4 [4] = biological target: T2, Melanocortin receptor 4; experiment: Agonist activity at human MC4R; assay type: functional
Melanocortin receptor 3 [5] = biological target: T3, Melanocortin receptor 3 (Homo sapiens, UniProt P41968); experiment: Binding affinity to human MC3R
Melanocortin receptor 3 [6] = biological target: T3, Melanocortin receptor 3; experiment: Agonist activity at human MC3R; assay type: functional
[7] = biological target: Melanocortin receptor (M1 and M4) (Homo sapiens) (UniProt P32245+Q01726); experiment: Selectivity for human MC4R over MC1R; assay type: protein assay
[8] = biological target: Melanocortin receptor (M3 and M4) (Homo sapiens) (UniProt P32245+P41968); experiment: Selectivity for human MC4R over MC3R; assay type: protein assay

T2 sequence (P32245 whole entry): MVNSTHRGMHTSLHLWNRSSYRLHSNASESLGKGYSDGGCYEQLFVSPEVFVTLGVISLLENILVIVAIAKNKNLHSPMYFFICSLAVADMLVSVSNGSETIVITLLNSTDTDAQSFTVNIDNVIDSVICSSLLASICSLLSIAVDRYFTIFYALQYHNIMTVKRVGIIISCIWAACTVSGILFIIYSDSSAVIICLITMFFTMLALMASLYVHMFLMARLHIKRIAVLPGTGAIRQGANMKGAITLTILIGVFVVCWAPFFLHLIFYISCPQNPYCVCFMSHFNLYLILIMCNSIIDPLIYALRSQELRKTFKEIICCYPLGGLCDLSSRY
T3 sequence (P41968 whole entry): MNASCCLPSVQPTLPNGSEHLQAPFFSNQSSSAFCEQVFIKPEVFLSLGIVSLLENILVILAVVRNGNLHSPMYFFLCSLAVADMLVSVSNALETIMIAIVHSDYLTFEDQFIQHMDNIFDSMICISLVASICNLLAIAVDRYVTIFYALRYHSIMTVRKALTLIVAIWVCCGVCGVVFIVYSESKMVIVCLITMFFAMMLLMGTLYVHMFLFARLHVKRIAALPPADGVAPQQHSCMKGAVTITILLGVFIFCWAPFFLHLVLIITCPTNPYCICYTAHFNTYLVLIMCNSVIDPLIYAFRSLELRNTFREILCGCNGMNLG
T1 sequence (Q01726 whole entry): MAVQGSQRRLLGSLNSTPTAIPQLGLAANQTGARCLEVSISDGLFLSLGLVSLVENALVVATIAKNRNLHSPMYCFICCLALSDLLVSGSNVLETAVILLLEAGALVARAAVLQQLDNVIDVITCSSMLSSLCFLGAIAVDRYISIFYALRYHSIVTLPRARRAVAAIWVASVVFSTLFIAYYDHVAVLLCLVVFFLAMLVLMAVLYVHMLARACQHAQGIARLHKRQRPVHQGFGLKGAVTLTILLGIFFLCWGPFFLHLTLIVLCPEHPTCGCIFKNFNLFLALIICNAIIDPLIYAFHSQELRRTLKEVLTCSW

Row | EC50 [1] [nM] | Ki (Melanocortin receptor 4 [2]) [nM] | Ki [3] [nM] | EC50 (Melanocortin receptor 4 [4]) [nM] | Ki (Melanocortin receptor 3 [5]) [nM] | EC50 (Melanocortin receptor 3 [6]) [nM] | Selectivity ratio [7] | Selectivity ratio [8] | SMILES
1 | 0.37 | 1.1 | 2 | 0.34 | 3.3 | 0.5 | – | – | CNC(=O)[C@H](Cc1ccc2ccccc2c1)N1CCN(C(=O)[C@@H](Cc2ccc(F)cc2)NC(=O)[C@H](CCC(N)=O)NC(C)=O)[C@@H](CCCN=C(N)N)C1=O
2 | – | 261 | 2130 | 12 | 461 | – | – | – | CNC(=O)[C@H](Cc1ccc2ccccc2c1)N1CCN(C(=O)[C@H](N)Cc2ccc(F)cc2)[C@@H](CCCNC(N)=O)C1=O
3 | 526 | 5.7 | 659 | 1.7 | 239 | 41 | 116 | 42 | CNC(=O)[C@H](Cc1ccc2ccccc2c1)N1CCN(C(=O)[C@H](N)Cc2ccccc2)[C@@H](CCCN=C(N)N)C1=O
4 | 0.07 | 0.8 | 0.4 | 0.3 | 1 | 0.4 | – | – | CNC(=O)[C@H](Cc1ccc2ccccc2c1)N1CCN(C(=O)[C@@H](Cc2ccccc2)NC(=O)[C@H](Cc2c[nH]cn2)NC(C)=O)[C@@H](CCCN=C(N)N)C1=O
5 | 104 | 6 | 313 | 1.6 | 352 | 163 | – | – | CNC(=O)[C@H](Cc1ccc2ccccc2c1)N1CCN(C(=O)[C@@H](Cc2ccc(F)cc2)NC(=O)C2Cc3ccccc3CN2)[C@@H](CCCN=C(N)N)C1=O (stereo partly specified)
6 | – | 365 | 21700 | 18 | 6110 | – | – | – | CNC(=O)[C@H](Cc1ccc2ccccc2c1)N1CCN(C(=O)[C@H](N)Cc2ccc(F)cc2)[C@@H](CCNC(N)=O)C1=O
7 | 21700 | 225 | 4060 | 140 | 1140 | 20000 | – | – | CNC(=O)[C@H](Cc1ccc2ccccc2c1)NC(=O)[C@H](CCCN=C(N)N)NC(=O)[C@H](N)Cc1ccc(F)cc1
8 | 317 | 7 | 366 | 1.6 | 75 | 37 | – | – | CNC(=O)[C@H](Cc1ccc2ccccc2c1)N1CCN(C(=O)[C@H](N)Cc2ccc(F)cc2)[C@@H](CCCN=C(N)N)C1=O
9 | 2.3 | 1.3 | 18 | 0.5 | 7 | 10 | – | – | CNC(=O)[C@H](Cc1ccc2ccccc2c1)N1CCN(C(=O)[C@@H](Cc2ccc(F)cc2)NC(C)=O)[C@@H](CCCN=C(N)N)C1=O
10 | 30 | 0.4 | 14 | 8.7 | 1.1 | 2 | – | – | CNC(=O)[C@H](Cc1ccc2ccccc2c1)N1CCN(C(=O)[C@@H](Cc2ccc(F)cc2)NC(=O)[C@H](Cc2ccc(O)cc2)NC(C)=O)[C@@H](CCCN=C(N)N)C1=O
11 | 1390 | 5.3 | 958 | 9 | 206 | 142 | – | – | CNC(=O)[C@H](Cc1ccc2ccccc2c1)N1CCN(C(=O)CCc2ccc(F)cc2)[C@@H](CCCN=C(N)N)C1=O
12 | 1.7 | 5 | 2 | 2 | 35 | 6 | – | – | CNC(=O)[C@H](Cc1ccc2ccccc2c1)N1CCN(C(=O)[C@@H](Cc2ccc(F)cc2)NC(=O)[C@H](Cc2cnc[nH]2)NC(C)=O)[C@@H](CCCN=C(N)N)C1=O
13 | 1.7 | 0.6 | 1 | 0.2 | 1 | 1 | – | – | CNC(=O)[C@H](Cc1ccc2ccccc2c1)N1CCN(C(=O)[C@@H](Cc2ccccc2)NC(=O)[C@H](Cc2ccc(O)cc2)NC(C)=O)[C@@H](CCCN=C(N)N)C1=O
